Measured values as given in patent US9718828B2 (MERCK SHARP & DOHME CORP., priority 2011, dated 2017).
Structures can show the parent of a compound that is named as a salt.

biological target: Btk enzyme (His-Btk) (Homo sapiens (Human), UniProt Q06187); experiment: Btk enzyme activity, IMAP fluorescence polarization assay (Assay Method A); details: not given
Sequence (Q06187 whole entry): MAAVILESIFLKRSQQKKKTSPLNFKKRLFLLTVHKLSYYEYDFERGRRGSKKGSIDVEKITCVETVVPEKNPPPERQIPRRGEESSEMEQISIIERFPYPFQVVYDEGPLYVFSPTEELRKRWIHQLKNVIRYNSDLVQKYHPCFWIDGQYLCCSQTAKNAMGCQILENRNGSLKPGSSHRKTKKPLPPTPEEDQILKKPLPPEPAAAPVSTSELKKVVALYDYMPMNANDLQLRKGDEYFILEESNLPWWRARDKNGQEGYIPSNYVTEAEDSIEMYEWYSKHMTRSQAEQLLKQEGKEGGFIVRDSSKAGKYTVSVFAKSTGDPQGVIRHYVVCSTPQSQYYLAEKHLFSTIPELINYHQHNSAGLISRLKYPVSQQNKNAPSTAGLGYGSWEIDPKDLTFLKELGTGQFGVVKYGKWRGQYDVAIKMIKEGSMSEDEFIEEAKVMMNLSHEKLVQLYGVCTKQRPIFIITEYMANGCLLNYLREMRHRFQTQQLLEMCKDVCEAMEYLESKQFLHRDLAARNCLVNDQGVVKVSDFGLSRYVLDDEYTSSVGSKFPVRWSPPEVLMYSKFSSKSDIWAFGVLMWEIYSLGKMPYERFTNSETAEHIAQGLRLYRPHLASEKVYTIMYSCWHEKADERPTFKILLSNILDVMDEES

**Q.** For `CC(C)(C)NC(=O)C1CCCN(c2nc(-c3ccc(C(=O)Nc4ccccn4)cc3)c3c(N)nccn23)C1` (stereo not drawn) [Example 228, 1-(8-amino-1-(4-(pyridin-2-ylcarbamoyl)phenyl)imidazo[1,5-a]pyrazin-3-yl)-N-tert-butylpiperidine-3-carboxamide, TFA salt], which EC50 is on record?
**A.** The EC50 was 10 to 100 nM.

**Q.** With `Nc1nccn2c(N3CCCC(C(=O)N4CCOCC4)C3)nc(-c3ccc(C(=O)Nc4ccccn4)cc3)c12` (stereo not drawn) [Example 229, 4-(8-amino-3-(3-(morpholine-4-carbonyl)piperidin-1-yl)imidazo[1,5-a]pyrazin-1-yl)-N-(pyridin-2-yl)benzamide, TFA salt] as the compound, how does the EC50 read?
**A.** The EC50 was 10 to 100 nM.

**Q.** Which EC50 does the source give for `CCN(CC)C(=O)C1CCCN(c2nc(-c3ccc(C(=O)Nc4ccccn4)cc3)c3c(N)nccn23)C1` (stereo not drawn) [Example 230, 1-(8-amino-1-(4-(pyridin-2-ylcarbamoyl)phenyl)imidazo[1,5-a]pyrazin-3-yl)-N,N-diethylpiperidine-3-carboxamide, TFA salt] here?
**A.** Its EC50 is 10 to 100 nM.

**Q.** With `Nc1nccn2c(C3CCc4[nH]nc(C5CC5)c4C3)nc(-c3ccc(C(=O)Nc4cc(C(F)(F)F)ccn4)cc3)c12` (stereo not drawn) [Example 248, 4-(8-amino-3-(3-cyclopropyl-4,5,6,7-tetrahydro-1H-indazol-5-yl)imidazo[1,5-a]pyrazin-1-yl)-N-(4-(trifluoromethyl)pyridin-2-yl)benzamide] as the compound, how does the EC50 read?
**A.** The EC50 was less than 10 nM.

**Q.** `COCc1n[nH]c2c1CC(c1nc(-c3ccc(C(=O)Nc4cc(C(F)(F)F)ccn4)cc3)c3c(N)nccn13)CC2` (stereo not drawn) [Example 250, 4-(8-amino-3-(3-(methoxymethyl)-4,5,6,7-tetrahydro-1H-indazol-5-yl)imidazo[1,5-a]pyrazin-1-yl)-N-(4-(trifluoromethyl)pyridin-2-yl)benzamide] was tested. Which EC50 did it give?
**A.** Its EC50 is 10 to 100 nM.

**Q.** `CCOC(=O)N1CCCC(c2cc(-c3ccc(C(=O)Nc4cc(C(F)(F)F)ccn4)cc3)c3c(N)ncnn23)C1` (stereo not drawn) [Example 251, ethyl 3-(4-amino-5-(4-(4-(trifluoromethyl)pyridin-2-ylcarbamoyl)phenyl)pyrrolo[1,2-f][1,2,4]triazin-7-yl)piperidine-1-carboxylate] was tested. Which EC50 did it give?
**A.** Its EC50 is less than 10 nM.

same assay, conditions: read-out: EC50 Btk activity values - Assay Method A; IMAP-FP, 60 min pre-incubation, 5 μM ATP; class 100-1000 is given as ≧100 nM-<1 μM

**Q.** How did the EC50 turn out when `Nc1nccn2c(N3CCCC(C(=O)NC4CC(F)(F)C4)C3)nc(-c3ccc(C(=O)Nc4cc(C(F)(F)F)ccn4)cc3)c12` (stereo not drawn) [Example 226, 1-(8-amino-1-(4-(4-(trifluoromethyl)pyridin-2-ylcarbamoyl)phenyl)imidazo[1,5-a]pyrazin-3-yl)-N-(3,3-difluorocyclobutyl)piperidine-3-carboxamide, TFA salt] was run?
**A.** The EC50 was less than 10 nM.

**Q.** `Nc1nccn2c(N3CCCC(C(=O)NC[C@@H]4CCCO4)C3)nc(-c3ccc(C(=O)Nc4ccccn4)cc3)c12` (stereo partly drawn) [Example 227, 1-(8-amino-1-(4-(pyridin-2-ylcarbamoyl)phenyl)imidazo[1,5-a]pyrazin-3-yl)-N-(((S)-tetrahydrofuran-2-yl)methyl)piperidine-3-carboxamide, TFA salt] was tested. Which EC50 did it give?
**A.** The EC50 was less than 10 nM.

**Q.** With `Nc1nccn2c(N3CCCC(C(=O)NC[C@@H]4CCCO4)C3)nc(-c3ccc(C(=O)Nc4cc(C(F)(F)F)ccn4)cc3)c12` (stereo partly drawn) [Example 231, 1-(8-amino-1-(4-(4-(trifluoromethyl)pyridin-2-ylcarbamoyl)phenyl)imidazo[1,5-a]pyrazin-3-yl)-N-(((S)-tetrahydrofuran-2-yl)methyl)piperidine-3-carboxamide, TFA salt] as the compound, how does the EC50 read?
**A.** The EC50 was less than 10 nM.

**Q.** For `COCCNC(=O)C1CCCN(c2nc(-c3ccc(C(=O)Nc4cc(C(F)(F)F)ccn4)cc3)c3c(N)nccn23)C1` (stereo not drawn) [Example 232, 1-(8-amino-1-(4-(4-(trifluoromethyl)pyridin-2-ylcarbamoyl)phenyl)imidazo[1,5-a]pyrazin-3-yl)-N-(2-methoxyethyl)piperidine-3-carboxamide, TFA salt], which EC50 is on record?
**A.** Its EC50 is less than 10 nM.

**Q.** Which EC50 does the source give for `Nc1nccn2c(N3CCCC(C(=O)NCC4CC4)C3)nc(-c3ccc(C(=O)Nc4cc(C(F)(F)F)ccn4)cc3)c12` (stereo not drawn) [Example 233, 1-(8-amino-1-(4-(4-(trifluoromethyl)pyridin-2-ylcarbamoyl)phenyl)imidazo[1,5-a]pyrazin-3-yl)-N-(cyclopropylmethyl)piperidine-3-carboxamide, TFA salt] here?
**A.** Its EC50 is less than 10 nM.

**Q.** How did the EC50 turn out when `Nc1nccn2c(N3CCCC(C(=O)N4CCOCC4)C3)nc(-c3ccc(C(=O)Nc4cc(C(F)(F)F)ccn4)cc3)c12` (stereo not drawn) [Example 234, 4-(8-amino-3-(3-(morpholine-4-carbonyl)piperidin-1-yl)imidazo[1,5-a]pyrazin-1-yl)-N-(4-(trifluoromethyl)pyridin-2-yl)benzamide, TFA salt] was run?
**A.** The EC50 was less than 10 nM.

**Q.** `COC[C@H](C)NC(=O)C1CCCN(c2nc(-c3ccc(C(=O)Nc4ccccn4)cc3)c3c(N)nccn23)C1` (stereo partly drawn) [Example 235, 1-(8-amino-1-(4-(pyridin-2-ylcarbamoyl)phenyl)imidazo[1,5-a]pyrazin-3-yl)-N-((S)-1-methoxypropan-2-yl)piperidine-3-carboxamide, TFA salt] was tested. Which EC50 did it give?
**A.** The EC50 was less than 10 nM.

**Q.** How did the EC50 turn out when `CCNC(=O)C1CCCN(c2nc(-c3ccc(C(=O)Nc4cc(C(F)(F)F)ccn4)cc3)c3c(N)nccn23)C1` (stereo not drawn) [Example 236, 1-(8-amino-1-(4-(4-(trifluoromethyl)pyridin-2-ylcarbamoyl)phenyl)imidazo[1,5-a]pyrazin-3-yl)-N-ethylpiperidine-3-carboxamide, TFA salt] was run?
**A.** The EC50 was less than 10 nM.

**Q.** For `Nc1nccn2c(N3CCCC(C(=O)N[C@H]4CCOC4)C3)nc(-c3ccc(C(=O)Nc4cc(C(F)(F)F)ccn4)cc3)c12` (stereo partly drawn) [Example 237, 1-(8-amino-1-(4-(4-(trifluoromethyl)pyridin-2-ylcarbamoyl)phenyl)imidazo[1,5-a]pyrazin-3-yl)-N-((S)-tetrahydrofuran-3-yl)piperidine-3-carboxamide, TFA salt], which EC50 is on record?
**A.** The EC50 was less than 10 nM.

**Q.** `Nc1nccn2c(N3CCCC(C(=O)N[C@@H]4CCOC4)C3)nc(-c3ccc(C(=O)Nc4cc(C(F)(F)F)ccn4)cc3)c12` (stereo partly drawn) [Example 238, 1-(8-amino-1-(4-(4-(trifluoromethyl)pyridin-2-ylcarbamoyl)phenyl)imidazo[1,5-a]pyrazin-3-yl)-N-((R)-tetrahydrofuran-3-yl)piperidine-3-carboxamide, TFA salt] was tested. Which EC50 did it give?
**A.** Its EC50 is less than 10 nM.

**Q.** `CSCCNC(=O)C1CCCN(c2nc(-c3ccc(C(=O)Nc4cc(C(F)(F)F)ccn4)cc3)c3c(N)nccn23)C1` (stereo not drawn) [Example 239, 1-(8-amino-1-(4-(4-(trifluoromethyl)pyridin-2-ylcarbamoyl)phenyl)imidazo[1,5-a]pyrazin-3-yl)-N-(2-(methylthio)ethyl)piperidine-3-carboxamide, TFA salt] was tested. Which EC50 did it give?
**A.** Its EC50 is less than 10 nM.

**Q.** `CS(=O)(=O)CCNC(=O)C1CCCN(c2nc(-c3ccc(C(=O)Nc4cc(C(F)(F)F)ccn4)cc3)c3c(N)nccn23)C1` (stereo not drawn) [Example 240, 1-(8-amino-1-(4-(4-(trifluoromethyl)pyridin-2-ylcarbamoyl)phenyl)imidazo[1,5-a]pyrazin-3-yl)-N-(2-(methylsulfonyl)ethyl)piperidine-3-carboxamide, TFA salt] was tested. Which EC50 did it give?
**A.** Its EC50 is less than 10 nM.

**Q.** For `COC[C@H](C)NC(=O)C1CCCN(c2nc(-c3ccc(C(=O)Nc4cc(C5CC5)ccn4)cc3)c3c(N)nccn23)C1` (stereo partly drawn) [Example 241, 1-(8-amino-1-(4-(4-cyclopropylpyridin-2-ylcarbamoyl)phenyl)imidazo[1,5-a]pyrazin-3-yl)-N-((S)-1-methoxypropan-2-yl)piperidine-3-carboxamide, TFA salt], which EC50 is on record?
**A.** Its EC50 is less than 10 nM.

**Q.** Which EC50 does the source give for `CONC(=O)C1CCCN(c2nc(-c3ccc(C(=O)Nc4cc(C(F)(F)F)ccn4)cc3)c3c(N)nccn23)C1` (stereo not drawn) [Example 242, 1-(8-amino-1-(4-(4-(trifluoromethyl)pyridin-2-ylcarbamoyl)phenyl)imidazo[1,5-a]pyrazin-3-yl)-N-methoxypiperidine-3-carboxamide, TFA salt] here?
**A.** Its EC50 is less than 10 nM.

**Q.** With `Nc1nccn2c(N3CCCC(C(=O)N4CCCC(F)(F)C4)C3)nc(-c3ccc(C(=O)Nc4cc(C(F)(F)F)ccn4)cc3)c12` (stereo not drawn) [Example 243, 4-(8-amino-3-(3-(3,3-difluoropiperidine-1-carbonyl)piperidin-1-yl)imidazo[1,5-a]pyrazin-1-yl)-N-(4-(trifluoromethyl)pyridin-2-yl)benzamide, TFA salt] as the compound, how does the EC50 read?
**A.** The EC50 was less than 10 nM.

**Q.** How did the EC50 turn out when `CONC(=O)C1CCCN(c2nc(-c3ccc(C(=O)Nc4cc(C5CC5)ccn4)cc3)c3c(N)nccn23)C1` (stereo not drawn) [Example 244, 1-(8-amino-1-(4-(4-cyclopropylpyridin-2-ylcarbamoyl)phenyl)imidazo[1,5-a]pyrazin-3-yl)-N-methoxypiperidine-3-carboxamide, TFA salt] was run?
**A.** The EC50 was less than 10 nM.

**Q.** How did the EC50 turn out when `Nc1nccn2c(N3CCCC(C(=O)NCC4CC4)C3)nc(-c3ccc(C(=O)Nc4cc(C5CC5)ccn4)cc3)c12` (stereo not drawn) [Example 245, 1-(8-amino-1-(4-(4-cyclopropylpyridin-2-ylcarbamoyl)phenyl)imidazo[1,5-a]pyrazin-3-yl)-N-(cyclopropylmethyl)piperidine-3-carboxamide, TFA salt] was run?
**A.** The EC50 was less than 10 nM.

**Q.** `CCN(CC)C(=O)C1CCCN(c2nc(-c3ccc(C(=O)Nc4cc(C5CC5)ccn4)cc3)c3c(N)nccn23)C1` (stereo not drawn) [Example 246, 1-(8-amino-1-(4-(4-cyclopropylpyridin-2-ylcarbamoyl)phenyl)imidazo[1,5-a]pyrazin-3-yl)-N,N-diethylpiperidine-3-carboxamide, TFA salt] was tested. Which EC50 did it give?
**A.** The EC50 was less than 10 nM.

**Q.** Which EC50 does the source give for `Nc1nccn2c(N3CCCC(C(=O)N4CCCC4)C3)nc(-c3ccc(C(=O)Nc4cc(C5CC5)ccn4)cc3)c12` (stereo not drawn) [Example 247, 4-(8-amino-3-(3-(pyrrolidine-1-carbonyl)piperidin-1-yl)imidazo[1,5-a]pyrazin-1-yl)-N-(4-cyclopropylpyridin-2-yl)benzamide, TFA salt] here?
**A.** The EC50 was less than 10 nM.

**Q.** With `N#Cc1ccnc(NC(=O)c2ccc(-c3nc(C4CCc5[nH]nc(C6CC6)c5C4)n4ccnc(N)c34)cc2)c1` (stereo not drawn) [Example 249, 4-(8-amino-3-(3-cyclopropyl-4,5,6,7-tetrahydro-1H-indazol-5-yl)imidazo[1,5-a]pyrazin-1-yl)-N-(4-cyanopyridin-2-yl)benzamide, TFA salt] as the compound, how does the EC50 read?
**A.** Its EC50 is less than 10 nM.

**Q.** With `CCNC(=O)N1CCCC(c2cc(-c3ccc(C(=O)Nc4cc(C(F)(F)F)ccn4)cc3)c3c(N)ncnn23)C1` (stereo not drawn) [Example 252, 3-(4-amino-5-(4-(4-(trifluoromethyl)pyridin-2-ylcarbamoyl)phenyl)pyrrolo[1,2-f][1,2,4]triazin-7-yl)-N-ethylpiperidine-1-carboxamide] as the compound, how does the EC50 read?
**A.** The EC50 was less than 10 nM.
